Source: patent US9513294B2, “Megastokes amino-triazolyl-BODIPY compounds and applications to live neuron staining and human serum albumin FA1 drug site probing” (National University of Singapore, priority 2012, dated 2016)

How the values were obtained:
[1] = Quantum yield measurements versus Acridine Yellow in EtOH; type: physicochemical; conditions: for φ (quantum yield): excitation 460 nm; for φ (%): quantum yield
Procedure: (§1) ^1H-NMR, ^19F-NMR and ^13C-NMR spectra were recorded on Bruker ACF300 (300 MHz), DPX300 (300 MHz) and AMX500 (500 MHz) spectrometers. High resolution mass spectra (ESI) were obtained on a Finnigan/MAT 95XL-T spectrometer. Spectroscopic and quantum yield data were measured on a SpectraMax M2 spectrophotometer (Molecular Devices). Data analysis was performed using GraphPrism 5.0. Analytical characterization was performed on a HPLC-MS (Agilent-1200 series) with a DAD detector and a single quadrupole mass spectrometer (6130 series) with an ESI probe. Analytical HPLC method: eluents, A: H2O (0.1% HCOOH), B: CH3CN (0.1% HCOOH), gradient 5% B to 95% B (10 min). Reverse-phase Phenomenex C18 Luna column (4.6×50 mm^2, 3.5 […]), flow rate: 1 mL/min.
Quantum yields were calculated by measuring the integrated emission area of the fluorescent spectra and comparing to the area measured for Acridine Yellow in EtOH when excited at 460 nm (Φfluorescence^AcridineYellow=0.47). Quantum yields for the amino-triazolyl-BODIPYs were calculated using the equation below, where F represents the area of fluorescent emission, η is the refractive index of the solvent, and Abs is absorbance at the excitation wavelength selected for standards and samples. Emission was integrated between 510 and 700 nm.

[2] = Absorbance and fluorescence emission spectra (SpectraMax M2); type: physicochemical; conditions: for λmax Abs. (nm) / λmax Em. (nm): MKAC compound library; for λmax Abs. (nm) / λmax Absorp. (nm): absorbance maximum; for λmax Em. (nm) / λmax Emission (nm): fluorescence emission maximum; for absorbance λmax / emission λmax: FIG. 2 normalized spectra; for λmax Absorp. (nm) / λmax Emission (nm): MKCA compound library
Procedure: BDC-8 (Blue): absorbance λmax=473 nm, emission λmax=585 nm; MK101-8 (Green): absorbance λmax=474 nm, emission λmax=563 nm; MKHA374-48 (Yellow): absorbance λmax=468 nm, λem=557 nm. The corresponding spectra of a reported BODIPY (BD-27; Red) are also included for comparison: absorbance λmax=551 nm, emission λmax=568 nm. The structures of BDC-8, MK101-8, MKHA374-48 and BD-27 are also depicted.
as §1

CCCC(C)c1cn(-c2ccc3n2[B-](F)(F)[N+]2=C(N4CCCCC4)C=CC2=C3c2ccc(NC(=O)CCl)cc2)nn1 (racemic) [BDCCA-3]
φ (quantum yield) ([1]; BDCCA library, Table 4): 0.9% | λmax Absorp. ([2]; BDCCA library, Table 4): 467 nm | λmax Emission ([2]; BDCCA library, Table 4): 587 nm

CCCc1cn(-c2ccc3n2[B-](F)(F)[N+]2=C(N(C)Cc4ccccc4)C=CC2=C3c2ccc(NC(C)=O)cc2)nn1 [MKAC195-48]
φ (%) ([1]; MKAC compound library): 2.72% | λmax Abs. (nm) [2]: 467 nm | λmax Em. (nm) [2]: 575 nm

CCCCCC(O)c1cn(-c2ccc3n2[B-](F)(F)[N+]2=C(NCc4ccccc4C)C=CC2=C3c2ccc(NC(C)=O)cc2)nn1 (stereo not shown) [MKAC101-69]
φ (%) ([1]; MKAC compound library): 24.08% | λmax Abs. (nm) [2]: 461 nm | λmax Em. (nm) [2]: 562 nm

Cc1ccccc1CNC1=[N+]2C(=C(c3ccc(N)cc3)c3ccc(-n4cc(CC5CCCCC5)nn4)n3[B-]2(F)F)C=C1 [MK101-8]
φ (quantum yield) ([1]; MK library, Table 5): 0.64% | absorbance λmax [2]: 474 nm | emission λmax [2]: 563 nm | λmax Absorp. ([2]; MK library, Table 5): 475 nm | λmax Emission ([2]; MK library, Table 5): 564 nm

CCCC(C)c1cn(-c2ccc3n2[B-](F)(F)[N+]2=C(N4CC(C)OC(C)C4)C=CC2=C3c2ccc(N)cc2)nn1 (stereo not shown) [MK20-3]
φ (quantum yield) ([1]; MK library, Table 5): 0.10% | λmax Absorp. ([2]; MK library, Table 5): 476 nm | λmax Emission ([2]; MK library, Table 5): 573 nm

CCCCCC(O)c1cn(-c2ccc3n2[B-](F)(F)[N+]2=C(N4CC(C)OC(C)C4)C=CC2=C3c2ccc(N)cc2)nn1 (stereo not shown) [MK20-69]
φ (quantum yield) ([1]; MK library, Table 5): 0.16% | λmax Absorp. ([2]; MK library, Table 5): 480 nm | λmax Emission ([2]; MK library, Table 5): 586 nm

COc1ccc(OC)c(CNC2=[N+]3C(=C(c4ccc(NC(C)=O)cc4)c4ccc(-n5cc(CCc6ccccc6)nn5)n4[B-]3(F)F)C=C2)c1 [MKAC181-19]
φ (%) ([1]; MKAC compound library): 14.0% | λmax Abs. (nm) [2]: 464 nm | λmax Em. (nm) [2]: 561 nm

CCOc1ccccc1CNC1=[N+]2C(=C(c3ccc(NC(=O)CCl)cc3)c3ccc(-n4cc(C5CCCC5)nn4)n3[B-]2(F)F)C=C1 [MKCA103-5]
φ (%) ([1]; MKCA compound library): 33.46% | λmax Absorp. (nm) [2]: 464 nm | λmax Emission (nm) [2]: 563 nm

Nc1ccc(C2=C3C=CC(N4CCCCC4)=[N+]3[B-](F)(F)n3c2ccc3-n2cc(CC3CCCCC3)nn2)cc1 [BDC-8]
φ (quantum yield) ([1]; BDC library, Table 2): 0.24% | λmax Absorp. ([2]; BDC library, Table 2): 473 nm | λmax Emission ([2]; BDC library, Table 2): 585 nm | absorbance λmax [2]: 473 nm | emission λmax [2]: 585 nm

CN(Cc1ccccc1)Cc1cn(-c2ccc3n2[B-](F)(F)[N+]2=C(N4CCc5ccccc5C4)C=CC2=C3c2ccc(N)cc2)nn1 [MK66-18]
φ (quantum yield) ([1]; MK library, Table 5): 0.14% | λmax Absorp. ([2]; MK library, Table 5): 478 nm | λmax Emission ([2]; MK library, Table 5): 587 nm

O=C(CCl)Nc1ccc(C2=C3C=CC(N4CCCCC4)=[N+]3[B-](F)(F)n3c2ccc3-n2cc(-c3ccc(F)cc3F)nn2)cc1 [BDCCA-26]
φ (quantum yield) ([1]; BDCCA library, Table 4): 1.3% | λmax Absorp. ([2]; BDCCA library, Table 4): 465 nm | λmax Emission ([2]; BDCCA library, Table 4): 568 nm

CC(=O)Nc1ccc(C2=C3C=CC(N4CCc5ccccc5C4)=[N+]3[B-](F)(F)n3c2ccc3-n2cc(C3CC3)nn2)cc1 [MKAC66-4]
φ (%) ([1]; MKAC compound library): 2.56% | λmax Abs. (nm) [2]: 469 nm | λmax Em. (nm) [2]: 580 nm

CC(=O)Nc1ccc(C2=C3C=CC(NCc4ccccc4C)=[N+]3[B-](F)(F)n3c2ccc3-n2cc(C3CC3)nn2)cc1 [MKAC101-4]
φ (%) ([1]; MKAC compound library): 23.84% | λmax Abs. (nm) [2]: 465 nm | λmax Em. (nm) [2]: 563 nm

CN(Cc1ccccc1)Cc1cn(-c2ccc3n2[B-](F)(F)[N+]2=C(NCc4cc(F)cc(F)c4)C=CC2=C3c2ccc(NC(=O)CCl)cc2)nn1 [MKCA412-18]
φ (%) ([1]; MKCA compound library): 26.25% | λmax Absorp. (nm) [2]: 463 nm | λmax Emission (nm) [2]: 560 nm

CC(=O)Nc1ccc(C2=C3C=CC(N4CCCCC4)=[N+]3[B-](F)(F)n3c2ccc3-n2cc(COc3ccccc3)nn2)cc1 [BDCAC-17]
φ (quantum yield) ([1]; BDCAC library, Table 3): 0.8% | λmax Absorp. ([2]; BDCAC library, Table 3): 465 nm | λmax Emission ([2]; BDCAC library, Table 3): 584 nm

CC1CN(C2=[N+]3C(=C(c4ccc(NC(=O)CCl)cc4)c4ccc(-n5cc(CCc6ccccc6)nn5)n4[B-]3(F)F)C=C2)CC(C)O1 (stereo not shown) [MKCA20-19]
φ (%) ([1]; MKCA compound library): 5.32% | λmax Absorp. (nm) [2]: 467 nm | λmax Emission (nm) [2]: 583 nm

CC(=O)Nc1ccc(C2=C3C=CC(N4CCc5ccccc5C4)=[N+]3[B-](F)(F)n3c2ccc3-n2cc(CO)nn2)cc1 [MKAC66-70]
φ (%) ([1]; MKAC compound library): 1.44% | λmax Abs. (nm) [2]: 468 nm | λmax Em. (nm) [2]: 582 nm

COc1ccc(OC)c(CNC2=[N+]3C(=C(c4ccc(NC(C)=O)cc4)c4ccc(-n5cc(C6CC6)nn5)n4[B-]3(F)F)C=C2)c1 [MKAC181-4]
φ (%) ([1]; MKAC compound library): 15.43% | λmax Abs. (nm) [2]: 464 nm | λmax Em. (nm) [2]: 562 nm

COc1ccc(OC)c(CNC2=[N+]3C(=C(c4ccc(NC(C)=O)cc4)c4ccc(-n5cc(C6CCCC6)nn5)n4[B-]3(F)F)C=C2)c1 [MKAC181-5]
φ (%) ([1]; MKAC compound library): 10.37% | λmax Abs. (nm) [2]: 464 nm | λmax Em. (nm) [2]: 563 nm

CCCc1cn(-c2ccc3n2[B-](F)(F)[N+]2=C(NCc4ccccc4OCC)C=CC2=C3c2ccc(N)cc2)nn1 [MK103-48]
φ (quantum yield) ([1]; MK library, Table 5): 1.91% | λmax Absorp. ([2]; MK library, Table 5): 473 nm | λmax Emission ([2]; MK library, Table 5): 563 nm

CC1CN(C2=[N+]3C(=C(c4ccc(NC(=O)CCl)cc4)c4ccc(-n5cc(CC6CCCCC6)nn5)n4[B-]3(F)F)C=C2)CC(C)O1 (stereo not shown) [MKCA20-8]
φ (%) ([1]; MKCA compound library): 6.71% | λmax Absorp. (nm) [2]: 466 nm | λmax Emission (nm) [2]: 573 nm

CN(Cc1ccccc1)Cc1cn(-c2ccc3n2[B-](F)(F)[N+]2=C(N4CCc5ccccc5C4)C=CC2=C3c2ccc(NC(=O)CCl)cc2)nn1 [MKCA66-18]
φ (%) ([1]; MKCA compound library): 2.33% | λmax Absorp. (nm) [2]: 466 nm | λmax Emission (nm) [2]: 585 nm

CN(Cc1ccccc1)Cc1cn(-c2ccc3n2[B-](F)(F)[N+]2=C(N4CCCC4)C=CC2=C3c2ccc(N)cc2)nn1 [MK215-18]
φ (quantum yield) ([1]; MK library, Table 5): 0.24% | λmax Absorp. ([2]; MK library, Table 5): 471 nm | λmax Emission ([2]; MK library, Table 5): 583 nm

CCCCCC(O)c1cn(-c2ccc3n2[B-](F)(F)[N+]2=C(N4CCCCC4)C=CC2=C3c2ccc(NC(=O)CCl)cc2)nn1 (racemic) [BDCCA-69]
φ (quantum yield) ([1]; BDCCA library, Table 4): 0.7% | λmax Absorp. ([2]; BDCCA library, Table 4): 467 nm | λmax Emission ([2]; BDCCA library, Table 4): 587 nm

CCOc1ccccc1CNC1=[N+]2C(=C(c3ccc(N)cc3)c3ccc(-n4cc(C5CCCC5)nn4)n3[B-]2(F)F)C=C1 [MK103-5]
φ (quantum yield) ([1]; MK library, Table 5): 2.01% | λmax Absorp. ([2]; MK library, Table 5): 473 nm | λmax Emission ([2]; MK library, Table 5): 564 nm

CC(=O)Nc1ccc(C2=C3C=CC(N4CCCCC4)=[N+]3[B-](F)(F)n3c2ccc3-n2cc(-c3ccc(-c4ccccc4)cc3)nn2)cc1 [BDCAC-23]
φ (quantum yield) ([1]; BDCAC library, Table 3): 1.3% | λmax Absorp. ([2]; BDCAC library, Table 3): 465 nm | λmax Emission ([2]; BDCAC library, Table 3): 574 nm

CC(=O)Nc1ccc(C2=C3C=CC(NCc4ccccc4C)=[N+]3[B-](F)(F)n3c2ccc3-n2cc(CC(C)C)nn2)cc1 [MKAC101-43]
φ (%) ([1]; MKAC compound library): 20.12% | λmax Abs. (nm) [2]: 465 nm | λmax Em. (nm) [2]: 562 nm

CCOc1ccccc1CNC1=[N+]2C(=C(c3ccc(NC(=O)CCl)cc3)c3ccc(-n4cc(CN(C)Cc5ccccc5)nn4)n3[B-]2(F)F)C=C1 [MKCA103-18]
φ (%) ([1]; MKCA compound library): 24.66% | λmax Absorp. (nm) [2]: 462 nm | λmax Emission (nm) [2]: 561 nm

CC(=O)Nc1ccc(C2=C3C=CC(N4CCCCC4)=[N+]3[B-](F)(F)n3c2ccc3-n2cc(CC3CCCCC3)nn2)cc1 [BDCAC-8]
φ (quantum yield) ([1]; BDCAC library, Table 3): 0.9% | λmax Absorp. ([2]; BDCAC library, Table 3): 468 nm | λmax Emission ([2]; BDCAC library, Table 3): 585 nm

COc1ccc(OC)c(CNC2=[N+]3C(=C(c4ccc(NC(=O)CCl)cc4)c4ccc(-n5cc(CC6CCCCC6)nn5)n4[B-]3(F)F)C=C2)c1 [MKCA181-8]
φ (%) ([1]; MKCA compound library): 20.56% | λmax Absorp. (nm) [2]: 465 nm | λmax Emission (nm) [2]: 562 nm
